Measured values published in ChEMBL document CHEMBL2218064, “Structure-activity relationship data for chemical series of antagonists of the P2X7 receptor (Supplementary Bioactivity Data for publication CHEMBL1157114)”.

What follows are compounds tested against T1, P2X purinoceptor 7 (Homo sapiens, UniProt Q99572) (assay: SUPPLEMENTARY: Inhibition of human P2X7 receptor assessed as inhibition of ethidium bromide accumulation. Same assay as CHEMBL1103860).
T1 sequence (Q99572 whole entry): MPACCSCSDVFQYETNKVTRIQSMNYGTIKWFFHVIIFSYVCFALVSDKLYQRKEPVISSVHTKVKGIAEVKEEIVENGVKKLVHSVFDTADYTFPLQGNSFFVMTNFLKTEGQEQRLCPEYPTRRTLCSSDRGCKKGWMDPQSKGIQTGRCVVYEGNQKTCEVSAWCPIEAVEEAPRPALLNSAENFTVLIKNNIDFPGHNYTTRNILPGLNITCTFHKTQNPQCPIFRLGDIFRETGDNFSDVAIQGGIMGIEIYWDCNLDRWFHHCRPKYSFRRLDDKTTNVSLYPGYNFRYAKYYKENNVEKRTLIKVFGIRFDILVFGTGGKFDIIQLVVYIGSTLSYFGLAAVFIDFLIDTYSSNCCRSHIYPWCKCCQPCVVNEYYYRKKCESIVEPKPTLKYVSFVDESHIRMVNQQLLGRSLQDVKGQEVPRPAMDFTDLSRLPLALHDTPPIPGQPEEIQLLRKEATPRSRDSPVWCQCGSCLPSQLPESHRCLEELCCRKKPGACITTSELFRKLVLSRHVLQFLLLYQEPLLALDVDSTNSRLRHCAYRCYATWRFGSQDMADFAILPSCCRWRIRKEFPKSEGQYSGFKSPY

| Compound | IC50 [nM] |
| --- | --- |
| CC(C)c1ccccc1N1CCN(C(=O)c2cccc(Cl)c2Cl)CC1=O | 10 |
| Cc1cc(F)ccc1N1CCN(C(=O)c2cccc(Cl)c2Cl)CC1=O | 50.1 |
| Cc1cc(F)cc(C)c1N1CCN(Cc2ccc(F)cc2Cl)C(=O)C1=O | 39.8 |
| Cc1cc(F)cc(C)c1N1CCN(Cc2ccc(Cl)cc2Cl)C(=O)C1=O | 12.6 |
| Cc1cc(F)cc(C)c1N1CCN(Cc2cccc(C(F)(F)F)c2Cl)C(=O)C1=O | 50.1 |
| Cc1cc(F)cc(C)c1N1CCN(Cc2cccc(Cl)c2Cl)C(=O)C1=O | 50.1 |
| Cc1cc(F)cc(C)c1N1CCN(Cc2ccc(F)c(F)c2F)C(=O)C1=O | 316 |
| Cc1ccc(N2CCOCC2)cc1N1CCN(C(=O)c2cccc(C(F)(F)F)c2Cl)CC1=O | 15.8 |
| CN1C(=O)N(c2ccccn2)C[C@H]1C(=O)NCc1cccc(C(F)(F)F)c1Cl | 6.31 |
| CN1C(=O)N(c2ccccn2)C[C@H]1C(=O)NCc1ccc(F)cc1Cl | 79.4 |
| CN1C(=O)N(c2cccnc2)C[C@H]1C(=O)NCc1ccc(F)cc1Cl | 50.1 |
| Cc1cnccc1N1CCN(Cc2ccc(F)cc2Cl)C(=O)C1=O | 501 |
| COc1cccc(N2CCN(Cc3ccc(F)cc3Cl)C(=O)C2=O)c1C | 25.1 |
| O=C1C(=O)N(c2ccccc2Br)CCN1Cc1ccc(F)cc1Cl | 12.6 |
| Cc1ccccc1N1CCN(C(=O)c2ccc(F)cc2Cl)CC1=O | 501 |
| Cc1cccc(N2CCN(Cc3ccc(F)cc3Cl)C(=O)C2=O)c1N1CCOCC1 | 50.1 |
| O=C1C(=O)N(c2cccc(Cl)c2N2CCOCC2)CCN1Cc1ccc(F)cc1Cl | 39.8 |
| Cc1ccc(N2CCOCC2)cc1N1CCN(Cc2ccc(F)cc2Cl)C(=O)C1=O | 31.6 |
| Cc1ccc(C)c(N2CCN(Cc3ccc(F)cc3Cl)C(=O)C2=O)n1 | 200 |
| Cc1ccccc1N1CCN(C(=O)c2ccc(Cl)cc2Cl)CC1=O | 63.1 |
| O=C(c1cccc(Cl)c1Cl)N1CCN(c2ccc(F)cc2)C(=O)C1 | 100 |
| Cc1c(CN2CCOCC2)cccc1N1CCN(Cc2ccc(F)cc2Cl)C(=O)C1=O | 100 |
| Cc1ncccc1N1CCN(Cc2ccc(F)cc2Cl)C(=O)C1=O | 631 |
| Cc1ccccc1N1CCN(C(=O)c2cccc(C(F)(F)F)c2Cl)CC1=O | 10 |
| O=C(c1cccc(Cl)c1Cl)N1CCN(c2cccc(Cl)c2)C(=O)C1 | 100 |

| Compound | IC50 [nM] |
| --- | --- |
| Cc1cccnc1N1CCN(Cc2ccc(F)cc2Cl)C(=O)C1=O | 631 |
| CN1C(=O)N(c2ncccn2)C[C@H]1C(=O)NCc1ccc(Cl)cc1Cl | 6.31 |
| CN1C(=O)N(c2ncccn2)C[C@H]1C(=O)NCc1ccc(F)cc1Cl | 25.1 |
| CN1C(=O)N(c2ncccn2)C[C@H]1C(=O)NCc1ccc(F)c(F)c1Cl | 7.94 |
| O=C1C(=O)N(c2ccccc2N2CCCCC2)CCN1Cc1ccc(F)cc1Cl | 50.1 |
| O=C(c1cccc(Cl)c1Cl)N1CCN(c2ccc(Cl)cc2)C(=O)C1 | 126 |
| Cc1c(Cl)cccc1CNC(=O)[C@@H]1CN(c2ncccn2)C(=O)N1C | 7.94 |
| Cc1c(OCCN2CCOCC2)cccc1N1CCN(Cc2ccc(F)cc2Cl)C(=O)C1=O | 100 |
| CN1C(=O)NC[C@H]1C(=O)NCc1ccc(F)c(F)c1Cl | 20 |
| Cc1c(N2CCOCC2)cccc1N1CCN(Cc2ccc(F)cc2Cl)C(=O)C1=O | 31.6 |
| Cc1ccc(N2CCOCC2)c(N2CCN(Cc3ccc(F)cc3Cl)C(=O)C2=O)c1 | 50.1 |
| Cc1cccnc1N1C[C@@H](C(=O)NCc2cccc(C(F)(F)F)c2Cl)N(C)C1=O | 5.01 |
| Cc1cccnc1N1C[C@@H](C(=O)NCc2ccc(Cl)cc2Cl)N(C)C1=O | 15.8 |
| Cc1cccnc1N1C[C@@H](C(=O)NCc2ccc(F)c(F)c2Cl)N(C)C1=O | 25.1 |
| O=C1C(=O)N(c2ccccc2N2CCCC2)CCN1Cc1ccc(F)cc1Cl | 39.8 |
| O=C(c1ccc(F)cc1Cl)N1CCN(c2ccccc2Cl)C(=O)C1 | 39.8 |
| O=C(c1ccc(Cl)cc1Cl)N1CCN(c2ccccc2Cl)C(=O)C1 | 25.1 |
| O=C(c1cccc(Cl)c1Cl)N1CCN(c2ccc(F)cc2Cl)C(=O)C1 | 31.6 |
| O=C(c1cccc(C(F)(F)F)c1Cl)N1CCN(c2ccccc2Cl)C(=O)C1 | 5.01 |
| Cc1ncccc1N1C[C@@H](C(=O)NCc2ccc(F)c(F)c2Cl)N(C)C1=O | 31.6 |
| Cc1ncccc1N1C[C@@H](C(=O)NCc2cccc(Cl)c2Cl)N(C)C1=O | 39.8 |
| COc1c(Cl)cccc1N1CCN(Cc2ccc(F)cc2Cl)C(=O)C1=O | 63.1 |
| O=C1C(=O)N(c2cccc3[nH]ccc23)CCN1Cc1ccc(F)cc1Cl | 12.6 |
| O=C(c1cccc(C(F)(F)F)c1Cl)N1CCN(c2ccc(F)cc2Cl)C(=O)C1 | 15.8 |
| Cc1cc(N2C[C@@H](C(=O)NCc3ccc(F)c(F)c3Cl)N(C)C2=O)ccn1 | 31.6 |

| Compound | IC50 [nM] |
| --- | --- |
| Cc1nc[nH]c1CN1C[C@@H](C(=O)NCc2ccc(F)c(F)c2Cl)N(C)C1=O | 200 |
| O=C(c1cccc(C(F)(F)F)c1Cl)N1CCN(c2ccc(F)cc2)C(=O)C1 | 25.1 |
| CN1CCN(C(=O)c2cccc(Cl)c2Cl)CC1=O | 200 |
| O=C1C(=O)N(c2cc(Cl)ccc2N2CCOCC2)CCN1Cc1ccc(F)cc1Cl | 31.6 |
| COc1c(Br)cccc1N1CCN(Cc2ccc(F)cc2Cl)C(=O)C1=O | 50.1 |
| CCc1ccccc1N1CCN(Cc2ccc(F)cc2Cl)C(=O)C1=O | 10 |
| CCN1CCN(C(=O)c2cccc(Cl)c2Cl)CC1=O | 200 |
| O=C1CN(C(=O)c2cccc(Cl)c2Cl)CCN1Cc1ccc(F)cc1Cl | 158 |
| CN1C(=O)N(CCN2CCOCC2)C[C@H]1C(=O)NCc1ccc(F)c(F)c1Cl | 63.1 |
| CC(C)N1CCN(C(=O)c2cccc(Cl)c2Cl)CC1=O | 126 |
| CC(C)c1ccccc1N1CCN(Cc2ccc(F)cc2Cl)C(=O)C1=O | 7.94 |
| O=C1C(=O)N(c2cc(F)ccc2N2CCOCC2)CCN1Cc1ccc(F)cc1Cl | 15.8 |
| O=C1C(=O)N(c2cc(Br)ccc2Cl)CCN1Cc1ccc(F)cc1Cl | 10 |
| O=C1C(=O)N(c2cccc3c2OCCO3)CCN1Cc1ccc(F)cc1Cl | 251 |
| O=C1C(=O)N(c2cc(F)ccc2F)CCN1Cc1ccc(F)cc1Cl | 158 |
| CC(C)(C)c1ccccc1N1CCN(Cc2ccc(F)cc2Cl)C(=O)C1=O | 20 |
| O=C1C(=O)N(c2ccccc2-n2cccc2)CCN1Cc1ccc(F)cc1Cl | 100 |
| Cc1cccc(N2CCN(Cc3ccc(F)cc3Cl)C(=O)C2=O)c1F | 158 |
| O=C1C(=O)N(c2ccccc2OC(F)(F)F)CCN1Cc1ccc(F)cc1Cl | 31.6 |
| O=C(c1cccc(Cl)c1Cl)N1CCN(c2ccc(F)cc2F)C(=O)C1 | 126 |
| O=C(c1ccc(Cl)cc1Cl)N1CCN(c2ccc(F)cc2F)C(=O)C1 | 794 |
| COc1ccc(Br)cc1N1CCN(Cc2ccc(F)cc2Cl)C(=O)C1=O | 79.4 |
| O=C(c1cccc(C(F)(F)F)c1Cl)N1CCN(c2ccc(F)cc2F)C(=O)C1 | 63.1 |
| O=C1C(=O)N(c2ccc(F)cc2Cl)CCN1Cc1ccc(F)cc1Cl | 200 |
| O=C1C(=O)N(c2cccc3ncccc23)CCN1Cc1ccc(F)cc1Cl | 501 |

| Compound | IC50 [nM] |
| --- | --- |
| O=C1C(=O)N(c2cncc3ccccc23)CCN1Cc1ccc(F)cc1Cl | 158 |
| Cc1cccc(C)c1N1CCN(Cc2ccc(F)cc2Cl)C(=O)C1=O | 3.16 |
| O=C1C(=O)N(c2ccccc2I)CCN1Cc1ccc(F)cc1Cl | 7.94 |
| C[C@H]1CN(Cc2ccc(Cl)cc2Cl)C(=O)C(=O)N1c1ccccc1 | 158 |
| Cc1cc(F)ccc1N1CCN(Cc2ccc(F)cc2Cl)C(=O)C1=O | 251 |
| CN1C(=O)N(c2cn(C)cn2)C[C@H]1C(=O)NCc1ccc(F)c(F)c1Cl | 15.8 |
| CN1C(=O)N(c2nccn2C)C[C@H]1C(=O)NCc1ccc(F)c(F)c1Cl | 39.8 |
| CN1C(=O)N(c2ccnn2C)C[C@H]1C(=O)NCc1ccc(F)c(F)c1Cl | 20 |
| CN1C[C@@H](C(=O)NCc2cccc(C(F)(F)F)c2Cl)NC1=O | 63.1 |
| CN1C[C@@H](C(=O)NCc2ccc(F)cc2Cl)NC1=O | 794 |
| COc1cccc(N2CCN(Cc3ccc(F)cc3Cl)C(=O)C2=O)c1Cl | 25.1 |
| CN1CCOc2cccc(N3CCN(Cc4ccc(F)cc4Cl)C(=O)C3=O)c21 | 251 |
| O=C1C(=O)N(c2ccccc2C(F)(F)F)CCN1Cc1ccc(F)cc1Cl | 15.8 |
| O=C(c1cccc(Cl)c1Cl)N1CCN(c2cccc3ccccc23)C(=O)C1 | 15.8 |
| COc1ccc(N2CCOCC2)cc1N1CCN(Cc2ccc(F)cc2Cl)C(=O)C1=O | 50.1 |
| O=C(c1cccc(C(F)(F)F)c1Cl)N1CCN(c2cccc3ccccc23)C(=O)C1 | 12.6 |
| O=C1C(=O)N(c2ccccc2-c2ccccc2)CCN1Cc1ccc(F)cc1Cl | 126 |
| Cc1c(Br)cccc1N1CCN(Cc2ccc(F)cc2Cl)C(=O)C1=O | 50.1 |
| Cc1c(F)ccc(N2CCN(Cc3ccc(F)cc3Cl)C(=O)C2=O)c1C | 200 |
| CN1C(=O)N(CCN2CCOCC2)CC1C(=O)NCc1cccc(C(F)(F)F)c1Cl (stereo not given) | 25.1 |
| CC(C)c1ccccc1N1CCN(C(=O)c2cccc(C(F)(F)F)c2Cl)CC1=O | 7.94 |
| CN1C(=O)N(CCN2CCOCC2)CC1C(=O)NCc1ccc(Cl)cc1Cl (stereo not given) | 79.4 |
| Cc1ccc(N2CCOCC2)cc1N1CCN(C(=O)c2cccc(Cl)c2Cl)CC1=O | 15.8 |
| CN1C(=O)N(CCN2CCOCC2)CC1C(=O)NCc1ccc(F)cc1Cl (stereo not given) | 251 |
| CC(C)c1ccccc1N1CCN(C(=O)c2ccc(F)cc2Cl)CC1=O | 31.6 |
